Usually AC50 stands for the midpoint of the concentration-response curve, whichever way the signal moves. A lower AC50 goes with greater potency.

Assay [1] concerns the target T1, Alpha-2B adrenergic receptor (Homo sapiens, UniProt P18089).
T1 sequence (P18089 whole entry): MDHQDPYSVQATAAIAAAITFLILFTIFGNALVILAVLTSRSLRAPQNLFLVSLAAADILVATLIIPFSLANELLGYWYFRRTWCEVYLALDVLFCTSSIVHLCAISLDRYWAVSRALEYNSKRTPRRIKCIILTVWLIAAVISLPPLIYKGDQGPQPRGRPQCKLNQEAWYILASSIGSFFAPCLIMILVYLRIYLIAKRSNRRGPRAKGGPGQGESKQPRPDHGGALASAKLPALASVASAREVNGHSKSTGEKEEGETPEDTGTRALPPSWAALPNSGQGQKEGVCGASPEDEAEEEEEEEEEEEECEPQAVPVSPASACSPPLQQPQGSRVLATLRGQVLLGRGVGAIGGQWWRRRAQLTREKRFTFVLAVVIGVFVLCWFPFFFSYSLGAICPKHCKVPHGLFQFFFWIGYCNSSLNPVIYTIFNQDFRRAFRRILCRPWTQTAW

A further assay has as its target Vasopressin V2 receptor (Homo sapiens, UniProt P30518).
In assay [2] the target is Muscarinic acetylcholine receptor M3 (Homo sapiens, UniProt P20309).
Chain of Muscarinic acetylcholine receptor M3 (P20309 whole entry): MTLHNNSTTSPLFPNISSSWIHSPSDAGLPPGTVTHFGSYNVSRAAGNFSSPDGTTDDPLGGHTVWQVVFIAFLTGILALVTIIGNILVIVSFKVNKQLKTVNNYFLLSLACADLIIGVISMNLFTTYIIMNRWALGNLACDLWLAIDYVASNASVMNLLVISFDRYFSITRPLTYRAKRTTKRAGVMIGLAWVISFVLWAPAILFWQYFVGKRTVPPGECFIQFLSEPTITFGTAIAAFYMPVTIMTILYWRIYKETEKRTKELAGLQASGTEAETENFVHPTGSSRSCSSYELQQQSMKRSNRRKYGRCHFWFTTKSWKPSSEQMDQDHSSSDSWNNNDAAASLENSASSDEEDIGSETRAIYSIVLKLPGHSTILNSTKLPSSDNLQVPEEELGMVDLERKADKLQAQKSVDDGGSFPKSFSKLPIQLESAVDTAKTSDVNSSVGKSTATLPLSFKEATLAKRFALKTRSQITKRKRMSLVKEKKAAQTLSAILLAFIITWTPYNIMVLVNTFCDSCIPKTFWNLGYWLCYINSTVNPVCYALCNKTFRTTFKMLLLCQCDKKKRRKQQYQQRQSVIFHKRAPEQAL
For assay [3], the target named is Gamma-aminobutyric acid receptor subunit alpha-1 (Rattus norvegicus, UniProt P62813).
Chain of Gamma-aminobutyric acid receptor subunit alpha-1 (P62813 whole entry): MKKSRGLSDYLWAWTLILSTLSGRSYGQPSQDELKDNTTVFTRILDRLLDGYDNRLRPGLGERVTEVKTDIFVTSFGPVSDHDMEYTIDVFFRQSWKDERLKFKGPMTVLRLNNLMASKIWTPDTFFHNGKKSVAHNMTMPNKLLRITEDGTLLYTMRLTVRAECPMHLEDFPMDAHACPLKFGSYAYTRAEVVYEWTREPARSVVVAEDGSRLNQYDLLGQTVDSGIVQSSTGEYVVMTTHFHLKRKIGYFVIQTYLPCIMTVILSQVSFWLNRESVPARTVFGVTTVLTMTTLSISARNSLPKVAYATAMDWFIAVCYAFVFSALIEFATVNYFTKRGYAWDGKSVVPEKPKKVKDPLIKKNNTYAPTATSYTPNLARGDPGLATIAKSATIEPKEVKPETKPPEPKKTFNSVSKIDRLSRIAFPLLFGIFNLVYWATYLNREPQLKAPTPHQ
The next assay deals with Histamine H2 receptor (Homo sapiens, UniProt P25021). Type of assay: functional, cell-based.
Chain of Histamine H2 receptor (P25021 whole entry): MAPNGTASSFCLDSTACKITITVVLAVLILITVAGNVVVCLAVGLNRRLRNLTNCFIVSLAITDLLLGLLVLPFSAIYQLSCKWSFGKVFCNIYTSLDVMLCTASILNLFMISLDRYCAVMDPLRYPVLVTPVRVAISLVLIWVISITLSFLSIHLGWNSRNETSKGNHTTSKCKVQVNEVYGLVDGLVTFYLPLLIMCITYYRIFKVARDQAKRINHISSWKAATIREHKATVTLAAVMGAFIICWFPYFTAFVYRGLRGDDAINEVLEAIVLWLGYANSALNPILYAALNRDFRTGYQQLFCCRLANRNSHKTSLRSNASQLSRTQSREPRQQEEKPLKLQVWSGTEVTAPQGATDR
For another assay, the target named is Melanocortin receptor 4 (Homo sapiens, UniProt P32245).
Chain of Melanocortin receptor 4 (P32245 whole entry): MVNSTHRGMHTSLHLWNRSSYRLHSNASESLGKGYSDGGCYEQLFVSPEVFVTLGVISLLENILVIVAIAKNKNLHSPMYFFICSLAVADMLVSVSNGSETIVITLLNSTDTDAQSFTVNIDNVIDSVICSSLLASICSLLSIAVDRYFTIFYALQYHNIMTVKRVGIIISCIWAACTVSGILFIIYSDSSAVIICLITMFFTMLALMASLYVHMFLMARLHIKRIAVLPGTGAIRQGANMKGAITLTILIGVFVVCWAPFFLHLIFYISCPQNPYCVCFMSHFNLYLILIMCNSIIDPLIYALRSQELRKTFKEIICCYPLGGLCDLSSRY
The target of another assay is T2, Progesterone receptor (Homo sapiens, UniProt P06401).
T2 sequence (P06401 whole entry): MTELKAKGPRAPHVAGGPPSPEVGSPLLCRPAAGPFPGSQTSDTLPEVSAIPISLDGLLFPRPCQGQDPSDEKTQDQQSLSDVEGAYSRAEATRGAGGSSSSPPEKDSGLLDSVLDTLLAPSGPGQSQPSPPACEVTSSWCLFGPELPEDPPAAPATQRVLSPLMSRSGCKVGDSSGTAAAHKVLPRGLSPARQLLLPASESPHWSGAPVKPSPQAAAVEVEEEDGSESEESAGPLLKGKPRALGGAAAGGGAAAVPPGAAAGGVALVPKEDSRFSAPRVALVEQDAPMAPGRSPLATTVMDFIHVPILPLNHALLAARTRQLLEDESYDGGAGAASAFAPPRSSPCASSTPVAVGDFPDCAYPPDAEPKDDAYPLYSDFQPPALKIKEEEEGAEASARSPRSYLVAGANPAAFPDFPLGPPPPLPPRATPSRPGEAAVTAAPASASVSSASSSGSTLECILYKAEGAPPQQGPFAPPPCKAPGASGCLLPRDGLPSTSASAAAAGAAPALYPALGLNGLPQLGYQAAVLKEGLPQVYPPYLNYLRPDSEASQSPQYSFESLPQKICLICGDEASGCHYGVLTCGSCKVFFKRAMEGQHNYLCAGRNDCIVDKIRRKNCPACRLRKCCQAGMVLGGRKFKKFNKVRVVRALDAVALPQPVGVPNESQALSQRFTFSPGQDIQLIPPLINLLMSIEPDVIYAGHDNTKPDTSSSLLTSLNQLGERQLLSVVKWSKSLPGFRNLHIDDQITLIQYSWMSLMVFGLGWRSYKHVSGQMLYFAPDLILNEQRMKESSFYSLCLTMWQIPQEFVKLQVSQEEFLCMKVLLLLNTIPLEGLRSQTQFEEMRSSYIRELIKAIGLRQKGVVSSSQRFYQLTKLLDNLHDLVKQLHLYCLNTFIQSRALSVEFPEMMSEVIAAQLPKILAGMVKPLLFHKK
The assay is classed as functional.

The target of assay [4] is T3, Mu-type opioid receptor (Homo sapiens, UniProt P35372).
T3 sequence (P35372 whole entry): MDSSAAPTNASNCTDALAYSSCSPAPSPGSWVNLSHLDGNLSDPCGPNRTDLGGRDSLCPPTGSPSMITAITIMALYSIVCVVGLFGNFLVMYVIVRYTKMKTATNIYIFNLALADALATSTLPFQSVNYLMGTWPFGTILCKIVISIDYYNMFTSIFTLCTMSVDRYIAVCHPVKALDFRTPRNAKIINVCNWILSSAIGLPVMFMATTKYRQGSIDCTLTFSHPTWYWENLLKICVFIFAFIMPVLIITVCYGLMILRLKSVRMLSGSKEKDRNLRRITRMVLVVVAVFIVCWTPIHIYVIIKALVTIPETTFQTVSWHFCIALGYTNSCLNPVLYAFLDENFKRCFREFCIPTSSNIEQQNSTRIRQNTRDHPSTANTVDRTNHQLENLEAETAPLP
Assay [5] addresses T4, Alpha-1A adrenergic receptor (Homo sapiens, UniProt P35348).
T4 sequence (P35348 whole entry): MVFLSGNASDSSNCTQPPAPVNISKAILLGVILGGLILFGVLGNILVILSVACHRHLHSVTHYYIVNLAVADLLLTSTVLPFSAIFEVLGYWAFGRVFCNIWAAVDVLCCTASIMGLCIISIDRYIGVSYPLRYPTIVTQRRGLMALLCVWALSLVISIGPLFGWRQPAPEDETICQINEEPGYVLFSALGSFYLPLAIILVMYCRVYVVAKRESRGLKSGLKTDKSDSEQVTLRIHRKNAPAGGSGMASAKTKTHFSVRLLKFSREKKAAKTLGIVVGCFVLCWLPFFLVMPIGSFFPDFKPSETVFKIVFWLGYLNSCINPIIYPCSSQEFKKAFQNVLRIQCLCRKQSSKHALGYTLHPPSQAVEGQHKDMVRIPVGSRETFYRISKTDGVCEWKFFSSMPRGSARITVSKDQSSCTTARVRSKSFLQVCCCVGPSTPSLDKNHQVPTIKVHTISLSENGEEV
The assay is classed as functional, cell-based.

The target of assay [6] is T4, Alpha-1A adrenergic receptor. Type of assay: functional, cell-based. The source holds these as a separate data set.
Assay [7] addresses T3, Mu-type opioid receptor. The source holds these as a separate data set.
The target of another assay is T5, Thromboxane A2 receptor (Homo sapiens, UniProt P21731).
T5 sequence (P21731 whole entry): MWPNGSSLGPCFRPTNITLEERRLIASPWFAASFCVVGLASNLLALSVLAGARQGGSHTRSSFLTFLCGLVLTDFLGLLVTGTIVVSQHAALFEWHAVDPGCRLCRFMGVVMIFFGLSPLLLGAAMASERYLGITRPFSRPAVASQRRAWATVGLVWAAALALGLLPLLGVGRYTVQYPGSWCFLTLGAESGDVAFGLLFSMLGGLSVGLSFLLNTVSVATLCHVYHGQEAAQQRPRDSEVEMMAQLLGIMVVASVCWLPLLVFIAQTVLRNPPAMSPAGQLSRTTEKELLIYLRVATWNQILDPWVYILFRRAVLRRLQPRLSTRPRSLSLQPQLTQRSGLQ
Type of assay: functional, cell-based.

Bounds are passed on as bounds.
Further: assay procedure not described here.

Chain of Vasopressin V2 receptor (P30518 whole entry): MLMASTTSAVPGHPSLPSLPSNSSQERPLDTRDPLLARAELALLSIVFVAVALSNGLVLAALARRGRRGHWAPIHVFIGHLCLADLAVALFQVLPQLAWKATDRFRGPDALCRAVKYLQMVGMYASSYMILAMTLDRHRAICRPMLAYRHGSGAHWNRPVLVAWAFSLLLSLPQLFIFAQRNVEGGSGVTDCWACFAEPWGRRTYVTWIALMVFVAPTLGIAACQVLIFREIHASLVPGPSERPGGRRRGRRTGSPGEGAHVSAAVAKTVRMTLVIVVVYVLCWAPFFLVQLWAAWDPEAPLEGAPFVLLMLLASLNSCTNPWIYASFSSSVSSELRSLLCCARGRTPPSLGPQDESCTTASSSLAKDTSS

As to `Cn1nnc2c(C(N)=O)ncn2c1=O` [TEMOZOLOMIDE], the AC50 in [1] was above 30 µM; at Vasopressin V2 receptor, above 30 µM; in assay [2] it was above 30 µM; in assay [3], above 10 µM; on Histamine H2 receptor it was above 10 µM; at Melanocortin receptor 4 it was above 30 µM. Also, the AC50 (on Progesterone receptor; on Mu-type opioid receptor [4]; in [5]) was above 30 µM in each case.
`CO[C@H]1C[C@@H]2CC[C@@H](C)[C@@](O)(O2)C(=O)C(=O)N2CCCC[C@H]2C(=O)O[C@H]([C@H](C)C[C@@H]2CC[C@@H](O)[C@H](OC)C2)CC(=O)[C@H](C)/C=C(\C)[C@@H](O)[C@@H](OC)C(=O)[C@H](C)C[C@H](C)/C=C/C=C/C=C/1C` [SIROLIMUS]: the half-maximal activity concentration (AC50) was above 30 µM in [6]; above 30 µM on Vasopressin V2 receptor; above 10 µM in assay [3]; above 10 µM on Histamine H2 receptor; above 30 µM on Melanocortin receptor 4; above 30 µM at Mu-type opioid receptor [7]. In addition, the values for the AC50 (on Thromboxane A2 receptor; at Mu-type opioid receptor [4]; in [5]) were above 30 µM, above 10 µM and above 30 µM, respectively.
With `Cc1cn([C@H]2C=C[C@@H](CO)O2)c(=O)[nH]c1=O` [STAVUDINE], the AC50 in assay [6] was above 30 µM; at Vasopressin V2 receptor, above 30 µM; in assay [3] it was above 10 µM; on Histamine H2 receptor, above 10 µM; on Melanocortin receptor 4 it was above 30 µM; on Mu-type opioid receptor [7] it was above 30 µM. Further, the AC50 (at Thromboxane A2 receptor; on Mu-type opioid receptor [4]; in assay [5]) was above 30 µM in each case.
Consider `CN1C(C(=O)Nc2ccccn2)=C(O)c2sc(Cl)cc2S1(=O)=O` [LORNOXICAM], for which the AC50 is above 10 µM in assay [1]; above 30 µM at Vasopressin V2 receptor; above 30 µM in [2]; above 10 µM in assay [3]; above 10 µM on Histamine H2 receptor; above 30 µM on Melanocortin receptor 4. Besides, the concentration at half-maximal activity (AC50) (on Mu-type opioid receptor [4]; in assay [5]) was above 30 µM throughout.
As for `NCC(CC(=O)O)c1ccc(Cl)cc1` (centres undefined) [BACLOFEN], the half-maximal activity concentration (AC50) was above 30 µM in assay [6]; above 30 µM at Vasopressin V2 receptor; above 10 µM in assay [3]; above 10 µM on Histamine H2 receptor; above 30 µM on Melanocortin receptor 4; above 30 µM on Mu-type opioid receptor [7]. In addition, the half-maximal activity concentration (AC50) (on Progesterone receptor; on Thromboxane A2 receptor; on Mu-type opioid receptor [4]; in [5]) was above 30 µM throughout.
Take `Cc1cn([C@H]2C[C@H](N=[N+]=[N-])[C@@H](CO)O2)c(=O)[nH]c1=O` [ZIDOVUDINE]: the concentration at half-maximal activity (AC50) is above 30 µM in assay [6]; above 30 µM on Vasopressin V2 receptor; above 10 µM in assay [3]; above 10 µM at Histamine H2 receptor; above 30 µM on Melanocortin receptor 4; above 30 µM at Mu-type opioid receptor [7]. The AC50 (at Thromboxane A2 receptor; on Mu-type opioid receptor [4]; in [5]) was above 30 µM each time.
Turning to `CS(=O)(=O)c1ccc(C2=C(c3ccccc3)C(=O)OC2)cc1` [ROFECOXIB], the AC50 is above 30 µM in [6]; above 30 µM on Vasopressin V2 receptor; above 10 µM in [3]; above 30 µM at Histamine H2 receptor; 24.1 µM on Melanocortin receptor 4; above 30 µM at Mu-type opioid receptor [7]. Besides, the figures for the AC50 (on Thromboxane A2 receptor; at Mu-type opioid receptor [4]; in assay [5]) were above 30 µM, above 10 µM and above 30 µM, respectively.
For `C[C@@H](O)[C@H]1C(=O)N2C(C(=O)O)=C(S[C@@H]3CN[C@H](C(=O)N(C)C)C3)[C@H](C)[C@H]12` [MEROPENEM], the AC50 was above 10 µM on Vasopressin V2 receptor; above 10 µM in [3]; above 10 µM at Histamine H2 receptor; above 10 µM on Melanocortin receptor 4; above 300 µM on Progesterone receptor; above 300 µM at Mu-type opioid receptor [4]. In assay [5], this molecule came in with an AC50 above 300 µM.
For `Clc1ccc2nsnc2c1NC1=NCCN1` [TIZANIDINE], the concentration at half-maximal activity (AC50) in [1] is 0.292 µM; at Vasopressin V2 receptor it was above 30 µM; in [2], above 10 µM; in assay [3], above 10 µM; on Histamine H2 receptor, 0.93 µM; at Melanocortin receptor 4, above 30 µM. In addition, at Mu-type opioid receptor [4], the AC50 is above 30 µM.
On to `Nc1ccn([C@H]2CC[C@@H](CO)O2)c(=O)n1` [ZALCITABINE], for which the AC50 is above 30 µM in [1]; above 10 µM on Vasopressin V2 receptor; above 30 µM in assay [2]; above 10 µM in assay [3]; above 10 µM on Histamine H2 receptor; above 10 µM at Melanocortin receptor 4. In addition, the AC50 (at Mu-type opioid receptor [4]; in assay [5]) was above 30 µM each time.
For the molecule `NS(=O)(=O)Cc1noc2ccccc12` [ZONISAMIDE], the AC50 was above 10 µM in assay [1]; above 10 µM at Vasopressin V2 receptor; above 30 µM in assay [2]; above 10 µM in assay [3]; above 10 µM on Histamine H2 receptor; above 10 µM on Melanocortin receptor 4. Also, the results for the AC50 on Progesterone receptor and on Mu-type opioid receptor [4] were above 10 µM and above 30 µM, respectively.
For the molecule `CN1C(=O)CCS(=O)(=O)C1c1ccc(Cl)cc1` (centres undefined) [CHLORMEZANONE], the concentration at half-maximal activity (AC50) was above 10 µM in assay [1]; above 10 µM at Vasopressin V2 receptor; above 30 µM in assay [2]; above 10 µM in assay [3]; above 30 µM on Histamine H2 receptor; above 10 µM on Melanocortin receptor 4. Further, the results for the AC50 at Progesterone receptor and at Mu-type opioid receptor [4] were above 10 µM and above 30 µM, respectively.
`CC[C@H]1OC(=O)[C@H](C)[C@@H](O[C@H]2C[C@@](C)(OC)[C@@H](O)[C@H](C)O2)[C@H](C)[C@@H](O[C@@H]2O[C@H](C)C[C@H](N(C)C)[C@H]2O)[C@](C)(O)C[C@@H](C)CN(C)[C@H](C)[C@@H](O)[C@]1(C)O` [AZITHROMYCIN]: the AC50 in assay [6] is above 30 µM; at Vasopressin V2 receptor, above 30 µM; in assay [3] it was above 30 µM; at Histamine H2 receptor it was above 10 µM; on Melanocortin receptor 4, above 30 µM; at Mu-type opioid receptor [7], above 30 µM. Further, the AC50 at Thromboxane A2 receptor was above 30 µM; at Mu-type opioid receptor [4] it was above 10 µM; in assay [5], above 30 µM.
With `O=C1Nc2ccc(Cl)cc2[C@@](C#CC2CC2)(C(F)(F)F)O1` [EFAVIRENZ], the AC50 in assay [1] is above 30 µM; on Vasopressin V2 receptor it was above 30 µM; in assay [2] it was above 30 µM; in assay [3] it was above 10 µM; on Histamine H2 receptor it was above 10 µM; at Melanocortin receptor 4, above 30 µM. For the same molecule, the values for the AC50 (at Progesterone receptor; on Mu-type opioid receptor [4]; in [5]) were 14 µM, above 30 µM and above 30 µM, respectively.

These data come from ChEMBL document CHEMBL5291721, “A preclinical secondary pharmacology resource illuminates target-adverse drug reaction associations of marketed drugs” (Nat Commun, 2023).
